Several values for one entry are separate records, joined by “and”; a condition that tells them apart may be missing. Equal entries are not always repeated. Where two headings read alike, the source gives them in different places.
What was measured:
[1] = Oxygen radical absorbance capacity assay (ORAC-FL); details: ORAC-FL, Trolox equivalents
Experimental: The antioxidant activity of KTs was determined using the ORAC-FL method described by Dávalos et al.[30] using fluorescein as a fluorescent probe with minor modification. Briefly, fluorescein and antioxidant were incubated in a black 96-well microplate (Nunc) for 15 min at 37 °C. The 2,2’-azobis(amidinopropane) dihydrochloride (AAPH) was then added quickly using the built-in injector of Varioskan Flash plate reader (Thermo Scientific).
Results are expressed in the Trolox equivalents (TE) unit in relation to radical scavenging properties of Trolox.

eqBuChE = biological target: T1, eqBuChE (Equus caballus, UniProt P81908); assay: biochemical; details: for IC50: mean ± SEM; for inhibition at 10 µM: Table 2 footnote b
T1 construct: serum horse BuChE (eqBuChE); from tissue; host or cells: horse serum
Experimental: (§1) Ellman’s protocol was followed to perform the anticholinesterasic activity. Briefly, the reaction was carried out in a final volume of 3 ml of a phosphate-buffered solution (0.1 M) at pH =8.0 containing (2.625 µl, 0.35 mM) of 5,5’-dithiobis-2-nitrobenzoic acid (DTNB), 40 µl 1% w/v Bovine Albumin Serum phosphate-buffered solution (BSA), (29 µl, 0.035 U/ml) of EeAChE or (60 µl, 0.05 U/ml) of eqBuChE, and 3 µl of tested compound, which were incubated for 10 min. Then, the acetylthiocholine iodide or butyrylthiocholine was added, and the reaction was incubated for additional 15 min. The activity in absence of compound was used as control.

EeAChE = EeAChE (Electrophorus electricus, UniProt O42275); assay: biochemical; details: mean ± SEM
Experimental: as §1

in vitro = assay type: cell-based; details: human
Experimental: The culture medium was refreshed after 24 h of incubation and 100 µl of six different concentrations (1–1000 µM) of test compounds or DMSO (0.1%) were then added. The cell viability was monitored by colourimetric assay with 3-[4,5-dimethylthiazol-2-yl]-2,5-diphenyl-tetrazolium bromide (MTT).
In this sense, all new KTs were submitted to the in vitro cell viability test (MTT assay) using human hepatocellular carcinoma cell line (HepG2)[26], as the most accepted probe to evaluate hepatotoxic effects. For this experiment, six different concentrations from 1 to 1000 µM were used.

hAChE = biological target: T2, hAChE (Homo sapiens, UniProt P22303); assay: biochemical
T2 construct: 10 µl of cholinesterase obtained from human erythrocyte hemolyzate, out of blood samples; from tissue; host or cells: human erythrocyte hemolysate from blood samples
Experimental: This blend was preincubated for 5 min and 20 µl of 0.01 M substrate (ATCh or BTCh) was added to initiate the reaction. […] The IC50 values are expressed as a mean ± SEM.
Next, as planned at the beginning of the project, the analysis of the antioxidant capacity of KT 2a–d, 2f–h, and 2l was carried out.

SH-SY5Y cells [2] = assay: Neuroprotection against oligomycin/rotenone-induced cell death (MTT); assay type: cell-based, human; details: O 10 µM / R 30 µM
Experimental: (§2) SH-SY5Y cell culture and treatment with compounds 2b–d and 2f. The cultures of human SH-SY5Y neuroblastoma cells kept under a CO2/air (5%/95%) humidified atmosphere at 37 °C for 24 h were treated with 100 µl of the test compounds or DMSO (0.1%) in DMEM/F12 (1:1) medium supplemented with 1% fetal bovine serum, 1X non-essential amino acids, 100 units/ml penicillin and 10 mg/ml streptomycin. Treatment medium was renewed every day for up to 48 h of treatment. MTT assay was then performed.
(§3) SH-SY5Y cells were seeded in 96-well culture plates at a density of 8 × 10^4 cells per well in DMEM/F12 (1:1) medium supplemented with 10% fetal bovine serum, 1X non-essential amino acids, 100 units/mL penicillin and 10 mg/mL streptomycin (Dutscher, France). After 24 h of incubation, the cultures were treated with 100 µl of the test compounds or DMSO (0.1%) in the same medium. Following 24 h, the cells were co-incubated with oligomycin A (10 µM)/rotenone (30 µM) (Sigma, France) or Aβ 1–40 (30 µM) with or without the tested compounds 2b–d and 2f at nontoxic concentrations against cells for an additional period of 24 h. MTT assay was then performed to determine the % of cell viability.
(§4) The ability to prevent the human neuroblastoma cell line SH-SY5Y cell death induced by toxic insults such as Αβ 1–40, implicated in ROS production and apoptosis-related signalling pathways, and oligomycin/rotenone (O/R)[39], was then assayed to determine the neuroprotective capacity of the four less hepatotoxic KTs 2b–d and 2f at nontoxic concentration against SH-SY5Y 3 and 10 µM, using melatonin and KA as reference molecules. For the evaluation of the neuroprotective effect, the cytotoxicity of O/R (10 µM/30 µM) on SH-SY5Y cell viability was determined as well as the toxicity of the selected KTs 2b–d and 2f at.

SH-SY5Y cells [3] = assay: Neuroprotection against Aβ1–40 peptide-induced cell death (MTT); assay type: cell-based, human; details: Aβ 1–40 30 µM
Experimental: as §2, §3, §4

[4] = HepG2 cells, 1 µM, percent of cell viability vs DMSO-treated control, read-out: HepG2 cell viability
[5] = HepG2 cells, 3 µM, percent of cell viability vs DMSO-treated control, read-out: HepG2 cell viability
[6] = HepG2 cells, 10 µM, percent of cell viability vs DMSO-treated control, read-out: HepG2 cell viability
[7] = HepG2 cells, 30 µM, percent of cell viability vs DMSO-treated control, read-out: HepG2 cell viability
[8] = HepG2 cells, 100 µM, percent of cell viability vs DMSO-treated control, read-out: HepG2 cell viability
[9] = HepG2 cells, 300 µM, percent of cell viability vs DMSO-treated control, read-out: HepG2 cell viability
[10] = HepG2 cells, 1000 µM, percent of cell viability vs DMSO-treated control, read-out: HepG2 cell viability

T1 sequence (P81908 whole entry): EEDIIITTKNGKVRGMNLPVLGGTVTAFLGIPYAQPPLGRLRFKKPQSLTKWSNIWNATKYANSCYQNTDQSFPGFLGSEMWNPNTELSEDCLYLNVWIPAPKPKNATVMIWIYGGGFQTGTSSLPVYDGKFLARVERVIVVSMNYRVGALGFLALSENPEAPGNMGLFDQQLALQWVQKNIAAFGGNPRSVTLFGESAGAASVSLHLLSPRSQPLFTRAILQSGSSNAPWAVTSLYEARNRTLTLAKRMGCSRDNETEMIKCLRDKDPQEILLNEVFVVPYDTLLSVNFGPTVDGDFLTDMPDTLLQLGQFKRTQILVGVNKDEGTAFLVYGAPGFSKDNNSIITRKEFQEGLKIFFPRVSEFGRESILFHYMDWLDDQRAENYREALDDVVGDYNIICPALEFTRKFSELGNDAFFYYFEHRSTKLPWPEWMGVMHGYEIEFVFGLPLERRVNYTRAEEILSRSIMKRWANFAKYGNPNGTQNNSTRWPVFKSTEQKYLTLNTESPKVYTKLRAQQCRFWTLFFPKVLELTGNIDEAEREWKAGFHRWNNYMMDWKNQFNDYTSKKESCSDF
Chain of EeAChE (O42275 24-633): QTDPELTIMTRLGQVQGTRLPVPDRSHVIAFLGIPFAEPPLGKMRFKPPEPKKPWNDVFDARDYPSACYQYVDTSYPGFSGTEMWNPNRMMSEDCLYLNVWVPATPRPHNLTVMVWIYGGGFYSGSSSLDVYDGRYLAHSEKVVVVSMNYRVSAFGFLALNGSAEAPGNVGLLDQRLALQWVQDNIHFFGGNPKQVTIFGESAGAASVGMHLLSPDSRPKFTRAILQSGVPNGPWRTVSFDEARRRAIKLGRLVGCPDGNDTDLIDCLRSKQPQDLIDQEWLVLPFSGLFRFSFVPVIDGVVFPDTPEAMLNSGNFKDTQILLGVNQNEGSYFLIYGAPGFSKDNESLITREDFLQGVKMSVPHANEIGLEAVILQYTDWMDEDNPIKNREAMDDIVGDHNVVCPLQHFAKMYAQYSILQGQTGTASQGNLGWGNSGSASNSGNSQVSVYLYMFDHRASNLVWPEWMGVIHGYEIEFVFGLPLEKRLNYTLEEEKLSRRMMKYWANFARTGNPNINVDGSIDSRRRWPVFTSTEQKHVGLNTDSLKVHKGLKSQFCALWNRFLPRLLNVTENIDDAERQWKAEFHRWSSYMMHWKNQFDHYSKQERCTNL
T2 sequence (P22303 32-617 isoform P22303-2 limits assumed): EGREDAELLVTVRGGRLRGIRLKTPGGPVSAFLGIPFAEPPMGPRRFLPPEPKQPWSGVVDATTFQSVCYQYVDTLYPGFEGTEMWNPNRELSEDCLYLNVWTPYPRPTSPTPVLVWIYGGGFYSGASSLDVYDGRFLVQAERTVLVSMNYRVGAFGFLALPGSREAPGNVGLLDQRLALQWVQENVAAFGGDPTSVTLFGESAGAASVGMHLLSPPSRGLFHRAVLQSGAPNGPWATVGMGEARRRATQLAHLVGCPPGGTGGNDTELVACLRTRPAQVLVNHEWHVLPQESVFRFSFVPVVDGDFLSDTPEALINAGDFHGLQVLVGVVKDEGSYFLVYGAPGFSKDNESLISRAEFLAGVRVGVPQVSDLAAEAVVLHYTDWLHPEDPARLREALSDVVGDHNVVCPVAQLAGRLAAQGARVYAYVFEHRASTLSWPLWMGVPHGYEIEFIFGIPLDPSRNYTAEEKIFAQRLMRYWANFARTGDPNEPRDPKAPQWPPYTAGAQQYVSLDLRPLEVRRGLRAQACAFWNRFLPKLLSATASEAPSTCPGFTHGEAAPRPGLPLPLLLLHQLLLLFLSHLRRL

## COc1cc(/C=C/C(=O)O)ccc1O [FA, ferulic acid, reference compound]
[1]
  ORAC: 3.74±0.22 TE and 3.74 TE

## Nc1c2c(nc3c1C(c1ccccc1)c1oc(CO)cc(=O)c1O3)CCCC2 (stereo not drawn) [KT2a]
eqBuChE
  IC50: 12.15 ± 0.09 µM
EeAChE
  IC50: 3.3 ± 0.09 µM
In vitro; [4]
  viability at 1 µM: 96.8 ± 1%
In vitro; [5]
  viability at 3 µM: 94.9 ± 2.9%
In vitro; [6]
  viability at 10 µM: 99.3 ± 1.7%
In vitro; [7]
  viability at 30 µM: 105 ± 5.3%
In vitro; [8]
  viability at 100 µM: 108 ± 5%
In vitro; [9]
  viability at 300 µM: 95 ± 3.4%
In vitro; [10]
  viability at 1000 µM: 50.3 ± 5.7%
hAChE; at 10 μM, Table 2 footnote b
  inhibition at 10 µM: < 50%
[1]
  ORAC: 2.58±0.22 TE and 2.58 TE

## COc1ccccc1C1c2oc(CO)cc(=O)c2Oc2nc3c(c(N)c21)CCCC3 (stereo not drawn) [KT2c]
eqBuChE
  inhibition at 10 µM: < 50%
EeAChE
  IC50: 2.39 ± 0.02 µM
SH-SY5Y cells [2]; compound 3 µM
  O/R (%) neuroprotection: 12.18 ± 0.08%
SH-SY5Y cells [2]; compound 10 µM
  O/R (%) neuroprotection: 16.56 ± 0.02%
In vitro; [4]
  viability at 1 µM: 94.7 ± 2.4%
In vitro; [5]
  viability at 3 µM: 103 ± 2.8%
In vitro; [6]
  viability at 10 µM: 99 ± 1.1%
In vitro; [7]
  viability at 30 µM: 98.2 ± 2.2%
In vitro; [8]
  viability at 100 µM: 96.1 ± 1.5%
In vitro; [9]
  viability at 300 µM: 88.5 ± 7.1%
In vitro; [10]
  viability at 1000 µM: 70.7 ± 7.7%
hAChE; at 10µM, Table 1S footnote c
  inhibition at 10 µM: < 50%
[1]
  ORAC: 6.05±0.41 TE and 6.05 TE
SH-SY5Y cells [3]; compound 3 µM
  Aβ1–40 (%) neuroprotection: np
SH-SY5Y cells [3]; compound 10 µM
  Aβ1–40 (%) neuroprotection: np

## COc1ccc(C2c3oc(CO)cc(=O)c3Oc3nc4c(c(N)c32)CCCC4)cc1 (stereo not drawn) [KT2e]
eqBuChE
  IC50: 7.57 ± 0.13 µM
EeAChE
  IC50: 1.14 ± 0.02 µM
In vitro; [4]
  viability at 1 µM: 95.5 ± 5.5%
In vitro; [5]
  viability at 3 µM: 96.1 ± 7.1%
In vitro; [6]
  viability at 10 µM: 95.9 ± 5.6%
In vitro; [7]
  viability at 30 µM: 98.3 ± 3.8%
In vitro; [8]
  viability at 100 µM: 86.1 ± 3.8%
In vitro; [9]
  viability at 300 µM: 70.9 ± 4.5%
In vitro; [10]
  viability at 1000 µM: 41.7 ± 3%
[1]
  ORAC: 4.46±0.27 TE

## Nc1c2c(nc3c1C(c1cccc(F)c1)c1oc(CO)cc(=O)c1O3)CCCC2 (stereo not drawn) [KT2g]
eqBuChE
  IC50: 4.54 ± 0.2 µM
EeAChE
  IC50: 2.14 ± 0.12 µM
In vitro; [4]
  viability at 1 µM: 101 ± 7.1%
In vitro; [5]
  viability at 3 µM: 96.5 ± 7.4%
In vitro; [6]
  viability at 10 µM: 99.1 ± 3.8%
In vitro; [7]
  viability at 30 µM: 109 ± 6.1%
In vitro; [8]
  viability at 100 µM: 103 ± 6.4%
In vitro; [9]
  viability at 300 µM: 90.5 ± 9.6%
In vitro; [10]
  viability at 1000 µM: 62.6 ± 9.7%
[1]
  ORAC: 4.34±0.17 TE

## Nc1c2c(nc3c1C(c1ccc(F)cc1)c1oc(CO)cc(=O)c1O3)CCCC2 (stereo not drawn) [KT2h]
eqBuChE
  inhibition at 10 µM: < 50%
EeAChE
  IC50: 3.44 ± 0.04 µM
In vitro; [4]
  viability at 1 µM: 97.4 ± 2.3%
In vitro; [5]
  viability at 3 µM: 95.9 ± 3.8%
In vitro; [6]
  viability at 10 µM: 100 ± 1.5%
In vitro; [7]
  viability at 30 µM: 101.4 ± 0.6%
In vitro; [8]
  viability at 100 µM: 102 ± 1.8%
In vitro; [9]
  viability at 300 µM: 87.2 ± 6.7%
In vitro; [10]
  viability at 1000 µM: 55.3 ± 6%
[1]
  ORAC: 4.69±0.18 TE

## Nc1c2c(nc3c1C(c1ccccc1Cl)c1oc(CO)cc(=O)c1O3)CCCC2 (stereo not drawn) [KT2i]
eqBuChE
  IC50: 8.54 ± 0.12 µM
EeAChE
  IC50: 0.76 ± 0.09 µM
In vitro; [4]
  viability at 1 µM: 98.6 ± 1.4%
In vitro; [5]
  viability at 3 µM: 100 ± 1.9%
In vitro; [6]
  viability at 10 µM: 99.4 ± 1.2%
In vitro; [7]
  viability at 30 µM: 105 ± 2.6%
In vitro; [8]
  viability at 100 µM: 95.2 ± 4.7%
In vitro; [9]
  viability at 300 µM: 64.4 ± 6.3%
In vitro; [10]
  viability at 1000 µM: 23.1 ± 6%
[1]
  ORAC: 4.84±0.06 TE

## Nc1c2c(nc3c1C(c1cccc(Cl)c1)c1oc(CO)cc(=O)c1O3)CCCC2 (stereo not drawn) [KT2j]
eqBuChE
  IC50: 4.19 ± 0.11 µM
EeAChE
  IC50: 0.82 ± 0.05 µM
In vitro; [4]
  viability at 1 µM: 97.6 ± 2%
In vitro; [5]
  viability at 3 µM: 101 ± 5.4%
In vitro; [6]
  viability at 10 µM: 105 ± 5.5%
In vitro; [7]
  viability at 30 µM: 99.6 ± 2.4%
In vitro; [8]
  viability at 100 µM: 102 ± 6.9%
In vitro; [9]
  viability at 300 µM: 52.7 ± 8.3%
In vitro; [10]
  viability at 1000 µM: 14.5 ± 6.4%
[1]
  ORAC: 4.67±0.31 TE

## Nc1c2c(nc3c1C(c1cccc(Br)c1)c1oc(CO)cc(=O)c1O3)CCCC2 (stereo not drawn) [KT2k]
eqBuChE
  IC50: 3.9 ± 0.09 µM
EeAChE
  IC50: 0.74 ± 0.08 µM
In vitro; [4]
  viability at 1 µM: 101 ± 4.8%
In vitro; [5]
  viability at 3 µM: 104 ± 8.9%
In vitro; [6]
  viability at 10 µM: 94.9 ± 2.6%
In vitro; [7]
  viability at 30 µM: 95.8 ± 2.5%
In vitro; [8]
  viability at 100 µM: 101 ± 3.1%
In vitro; [9]
  viability at 300 µM: 60.1 ± 10.4%
In vitro; [10]
  viability at 1000 µM: 37.2 ± 5.9%
[1]
  ORAC: 2.61±0.11 TE

## Nc1c2c(nc3c1C(c1c(Cl)cccc1Cl)c1oc(CO)cc(=O)c1O3)CCCC2 (stereo not drawn) [KT2l]
eqBuChE
  inhibition at 10 µM: < 50%
EeAChE
  IC50: 2.12 ± 0.09 µM
In vitro; [4]
  viability at 1 µM: 99.9 ± 2.7%
In vitro; [5]
  viability at 3 µM: 102 ± 2.3%
In vitro; [6]
  viability at 10 µM: 102 ± 2.6%
In vitro; [7]
  viability at 30 µM: 99.9 ± 3.2%
In vitro; [8]
  viability at 100 µM: 88.9 ± 8%
In vitro; [9]
  viability at 300 µM: 68.3 ± 9.3%
In vitro; [10]
  viability at 1000 µM: 50.5 ± 7.5%
[1]
  ORAC: 6.14±0.40 TE and 6.14 TE

## Nc1c2c(nc3ccccc13)CCCC2 [Tacrine, tacrine, reference compound]
In vitro
  viability at 1 µM: 112 ± 4%
  viability at 3 µM: 114 ± 4.8%
  viability at 10 µM: 108 ± 3.4%
  viability at 30 µM: 110 ± 4.2%
  viability at 100 µM: 102 ± 2.4%
  viability at 300 µM: 42.4 ± 2%
  viability at 1000 µM: 10.9 ± 2%
[1]
  ORAC: 0.2 ± 0.1 TE
